Test results taken from patent publication US20140221369A1, “5-DEUTERO-2,4-THIAZOLIDINEDIONE AND 5-DEUTERO-2,4-OXAZOLIDINEDIONE DERIVATIVES AND COMPOSITIONS COMPRISING AND METHODS OF USING THE SAME” (DeuteRx, LLC, priority 2013, published 2014).
One block for each molecule: values may come before it.

How the values were obtained:
[1] = In vitro stability in human plasma at 37° C. (enantiomerization and D/H exchange, chiral LC/MS-MS, kinetic fit); assay type: in vitro ADME; conditions: for k, h+ → h− / k, h− → h+: enantiomerization rate constant, fit of the stability data of the protonated enantiomer
Procedure: The (+)-5-[(p-{[6-(4-amino-3,5-xylyloxy)-1-methyl-1,3-diaza-1H-inden-2-yl]methoxy}phenyl)methyl]-1,3-thiazolidine-2,4-dione, (−)-5-[(p-{[6-(4-amino-3,5-xylyloxy)-1-methyl-1,3-diaza-1H-inden-2-yl]methoxy}phenyl)methyl]-1,3-thiazolidine-2,4-dione, and rac-5-[(p-{[6-(4-amino-3,5-xylyloxy)-1-methyl-1,3-diaza-1H-inden-2-yl]methoxy}phenyl)methyl]-(5-^2H)-1,3-thiazolidine-2,4-dione were incubated in human plasma (K3EDTA as anticoagulant) at 37° C. in duplicates. […] It also contained ˜15% of the protonated enantiomers. Aliquots were removed at time=0, 5, 10, 15, 30 min, and 1, 2, 4, and 8 hours. Plasma proteins were precipitated by addition of acetonitrile containing cisapride as an internal standard (ISTD) and the supernatants were analyzed semi-quantitatively by LC/MS-MS with elution on a chiral column (Daicel ChiralPak IC-3) for the separation of enantiomers (isocratic method of 30:70 v/v 20 mM ammonium bicarbonate in water (pH=9.0) and acetonitrile). Peak areas for the deuterated enantiomers (+)-5-[(p-{[6-(4-amino-3,5-xylyloxy)-1-methyl-1,3-diaza-1H-inden-2-yl]methoxy}phenyl)methyl]-1,3-thiazolidine-2,4-dione and (−)-5-[(p-{[6-(4-amino-3,5-xylyloxy)-1-methyl-1,3-diaza-1H-inden-2-yl]methoxy}phenyl)methyl]-(5-^2H)-1,3-thiazolidine-2,4-dione were normalized to the ISTD and corrected for the isotopic peak of the corresponding protonated enantiomer, (+)-5-[(p-{[6-(4-amino-3,5-xylyloxy)-1-methyl-1,3-diaza-1H-inden-2-yl]methoxy}phenyl)methyl]-1,3-thiazolidine-2,4-dione and (−)-5-[(p-{[6-(4-amino-3,5-xylyloxy)-1-methyl-1,3-diaza-1H-inden-2-yl]methoxy}phenyl)methyl]-1,3-thiazolidine-2,4-dione, respectively, if present. Corrected data were analyzed and plotted using Microsoft Excel 2013 (Microsoft Corp, Redmond, Wash.) and the Excel Solver.
Scheme 1 illustrates possible reactions in a solution of a mixture of deuterated enantiomers when no degradation or side-reactions occur. The deuterium in both enantiomers, d+ and d−, can be lost by D/H exchange to give both protonated enantiomers, h+ and h− with rate constants kD++, kD+−, kD−+, kD−−, where D indicates D/H exchange, the first +/− represents the reagent, d+ or d−, and the second +/− stands for the product, h+ or h−. At the same time, the protonated enantiomers h+ and h− can exchange, with enantiomerization rate constants k+− and k−+.
Illustration of possible reactions and corresponding rate constants in a solution of rac-5-[(p-{[6-(4-amino-3,5-xylyloxy)-1-methyl-1,3-diaza-1H-inden-2-yl]methoxy}phenyl)methyl]-(5-^2H)-1,3-thiazolidine-2,4-dione where d+, d−, h+, h− stand for […] and (−)-5-[(p-{[6-(4-amino-3,5-xylyloxy)-1-methyl-1,3-diaza-1H-inden-2-yl]methoxy}phenyl)methyl]-(5-^2H)-1,3-thiazolidine-2,4-dione and (+)- and (−)-5-[(p-{[6-(4-amino-3,5-xylyloxy)-1-methyl-1,3-diaza-1H-inden-2-yl]methoxy}phenyl)methyl]-1,3-thiazolidine-2,4-dione, respectively.
Independent analyses of the data for h+ and h− were performed first and the average rate constants k+− and k−+ from these two fits were calculated and used as constants in the fitting of the stability data of the deuterated racemate. Calculated concentrations were obtained through numerical approximation of differential equations (1) and (2) for the stability studies of h+ and h− and equations (3) to (6) for the stability study of the enantiomeric mixture of deuterated d+ and d− by the Euler method (equation (7)). The step between calculated time points was minimized in order to minimize the local error (proportional to the square of the step size) and the global error (proportional to the step size). Data analysis was performed in Microsoft Excel 2013, using the Solver Generalized Reduced Gradient Nonlinear method with central derivatives to minimize the sum of sums of weighted Δ^2, square of difference between ISTD-normalized experimental data and calculated value, divided by the experimental data. […]

[2] = target: T1, peroxisome proliferator-activated receptor gamma (PPARγ) (Homo sapiens, UniProt P37231); experiment: TRAP220 PPARγ coactivator recruitment assay (Cerep); assay type: biochemical; conditions: for EC50: TRAP220 coactivator recruitment, percent of control (10 μM rosiglitazone), four-parameter fit, read-out: EC50, PPARγ agonist activity
T1 construct: label (kind not specified); Cerep (France), contract assay
T1 sequence (P37231 whole entry): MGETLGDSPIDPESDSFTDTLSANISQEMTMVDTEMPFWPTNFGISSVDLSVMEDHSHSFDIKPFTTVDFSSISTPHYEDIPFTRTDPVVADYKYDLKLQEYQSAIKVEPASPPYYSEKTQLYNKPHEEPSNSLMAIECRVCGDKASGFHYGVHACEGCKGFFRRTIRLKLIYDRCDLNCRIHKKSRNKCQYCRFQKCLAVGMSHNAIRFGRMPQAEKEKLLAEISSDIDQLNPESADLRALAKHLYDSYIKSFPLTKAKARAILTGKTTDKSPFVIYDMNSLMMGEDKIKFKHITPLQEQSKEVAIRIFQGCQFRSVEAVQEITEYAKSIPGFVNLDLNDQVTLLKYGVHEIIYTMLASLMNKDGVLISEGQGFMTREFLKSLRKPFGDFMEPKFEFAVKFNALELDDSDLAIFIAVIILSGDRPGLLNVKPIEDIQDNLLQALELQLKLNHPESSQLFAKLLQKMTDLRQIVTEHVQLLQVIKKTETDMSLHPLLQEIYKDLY
T1 sequence (Q15648 whole entry partner): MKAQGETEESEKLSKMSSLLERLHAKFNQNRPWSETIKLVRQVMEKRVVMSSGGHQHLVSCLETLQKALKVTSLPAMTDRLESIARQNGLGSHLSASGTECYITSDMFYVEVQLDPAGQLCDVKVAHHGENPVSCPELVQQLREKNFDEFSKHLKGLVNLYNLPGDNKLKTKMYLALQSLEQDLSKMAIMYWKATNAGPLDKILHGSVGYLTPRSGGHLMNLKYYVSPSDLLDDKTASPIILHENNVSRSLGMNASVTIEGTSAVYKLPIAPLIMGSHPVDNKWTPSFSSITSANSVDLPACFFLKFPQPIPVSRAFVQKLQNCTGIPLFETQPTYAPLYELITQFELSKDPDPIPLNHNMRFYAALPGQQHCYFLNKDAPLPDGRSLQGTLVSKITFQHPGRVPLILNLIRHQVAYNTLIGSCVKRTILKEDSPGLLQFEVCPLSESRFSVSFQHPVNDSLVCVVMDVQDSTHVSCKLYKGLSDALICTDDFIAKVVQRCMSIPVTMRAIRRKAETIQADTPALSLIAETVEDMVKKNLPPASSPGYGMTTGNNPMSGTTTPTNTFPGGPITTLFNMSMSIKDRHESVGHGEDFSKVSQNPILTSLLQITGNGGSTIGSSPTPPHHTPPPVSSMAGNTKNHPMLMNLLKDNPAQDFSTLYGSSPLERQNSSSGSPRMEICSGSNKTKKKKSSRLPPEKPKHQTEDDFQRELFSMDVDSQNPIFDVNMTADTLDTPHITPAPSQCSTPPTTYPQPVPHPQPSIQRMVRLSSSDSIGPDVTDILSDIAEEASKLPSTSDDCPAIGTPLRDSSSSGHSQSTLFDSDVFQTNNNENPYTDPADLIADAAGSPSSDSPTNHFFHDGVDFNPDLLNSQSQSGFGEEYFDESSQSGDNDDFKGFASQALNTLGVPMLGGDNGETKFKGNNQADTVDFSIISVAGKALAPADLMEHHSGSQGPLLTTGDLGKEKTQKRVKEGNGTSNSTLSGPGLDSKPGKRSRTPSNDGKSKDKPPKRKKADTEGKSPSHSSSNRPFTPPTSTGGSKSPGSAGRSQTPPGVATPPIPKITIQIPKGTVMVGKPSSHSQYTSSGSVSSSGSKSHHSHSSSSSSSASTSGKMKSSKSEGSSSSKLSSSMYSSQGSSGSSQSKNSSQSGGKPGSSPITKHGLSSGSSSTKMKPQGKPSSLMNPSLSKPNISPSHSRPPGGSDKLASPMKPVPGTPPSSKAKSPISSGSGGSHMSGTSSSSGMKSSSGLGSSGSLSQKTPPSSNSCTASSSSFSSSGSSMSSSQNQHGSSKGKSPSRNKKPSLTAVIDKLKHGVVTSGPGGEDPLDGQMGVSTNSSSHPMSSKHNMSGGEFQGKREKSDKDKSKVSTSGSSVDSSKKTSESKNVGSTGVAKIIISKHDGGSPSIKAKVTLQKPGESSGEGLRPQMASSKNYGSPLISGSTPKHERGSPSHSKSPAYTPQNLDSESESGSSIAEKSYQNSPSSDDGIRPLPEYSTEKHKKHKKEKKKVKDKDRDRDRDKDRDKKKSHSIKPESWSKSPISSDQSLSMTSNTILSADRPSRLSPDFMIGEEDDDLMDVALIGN
Procedure: The agonist activity of (+)- and (−)-5-[(p-{[6-(4-amino-3,5-xylyloxy)-1-methyl-1,3-diaza-1H-inden-2-yl]methoxy}phenyl)methyl]-(5-^2H)-1,3-thiazolidine-2,4-dione at the peroxisome proliferator-activated receptor gamma (PPARγ) was evaluated in the thyroid receptor-associated protein complex, 220 kDa component (TRAP220) PPARγ coactivator recruitement assay performed at Cerep (France). Briefly, a mixture of labeled PPARγ and TRAP220 coactivator was pre-incubated with a fluorescence acceptor at room temperature for 30 minutes in the presence of a fluorescence acceptor and the test compound. A fluorescence donor was then added and the mixture was incubated for 120 minutes at room temperature. The fluorescence signal was measured and results expressed as a percent of control (10 μM rosiglitazone). A dose response curve was generated for each enantiomer and the experimental data was analyzed using the log(agonist) vs. response−variable slope (four parameters) nonlinear model in GraphPad Prism 6.0 (GraphPad Software, Inc., La Jolla, Calif.).

[3] = D/H exchange rate constant, mixture of d− and d+ in human plasma at 37° C., fit to Equations 1 to 6
[4] = average of enantiomerization rate constants obtained by fitting data for h− and h+, human plasma at 37° C.

- potency relative to the (−) enantiomer d− (fold less potent) ([2]; ratio of EC50): 7 fold
SMILES: Cc1cc(Oc2ccc3nc(COc4ccc(CC5SC(=O)NC5=O)cc4)n(C)c3c2)cc(C)c1N (single isomer, unassigned; (+)) [d+, (+)-5-[(p-{[6-(4-amino-3,5-xylyloxy)-1-methyl-1,3-diaza-1H-inden-2-yl]methoxy}phenyl)methyl]-(5-^2H)-1,3-thiazolidine-2,4-dione]

- EC50 [2]: 48.7 nM
- stability of d+ relative to h+ ([1]; human plasma at 37° C.): 2-3 fold
SMILES: [2H]C1(Cc2ccc(OCc3nc4ccc(Oc5cc(C)c(N)c(C)c5)cc4n3C)cc2)SC(=O)NC1=O (single isomer, unassigned; (+)) [d+, (+)-5-[(p-{[6-(4-amino-3,5-xylyloxy)-1-methyl-1,3-diaza-1H-inden-2-yl]methoxy}phenyl)methyl]-(5-^2H)-1,3-thiazolidine-2,4-dione]

- EC50 [2]: 7.4 nM
- stability of d− relative to h− ([1]; human plasma at 37° C.): not more stable than h−
SMILES: [2H]C1(Cc2ccc(OCc3nc4ccc(Oc5cc(C)c(N)c(C)c5)cc4n3C)cc2)SC(=O)NC1=O (single isomer, unassigned; (-)) [d−, (−)-5-[(p-{[6-(4-amino-3,5-xylyloxy)-1-methyl-1,3-diaza-1H-inden-2-yl]methoxy}phenyl)methyl]-(5-^2H)-1,3-thiazolidine-2,4-dione]

Second part, the molecule before the results:

SMILES: [2H]C1(Cc2ccc(OCc3nc4ccc(Oc5cc(C)c(N)c(C)c5)cc4n3C)cc2)SC(=O)NC1=O (racemic) [d−/d+, rac-5-[(p-{[6-(4-amino-3,5-xylyloxy)-1-methyl-1,3-diaza-1H-inden-2-yl]methoxy}phenyl)methyl]-(5-^2H)-1,3-thiazolidine-2,4-dione]
- k, d+ → h+ [1, 3]: 0 h⁻¹
- k, d+ → h− [1, 3]: 0.300 h⁻¹
- k, d− → h+ [1, 3]: 0.211 h⁻¹
- k, d− → h− [1, 3]: 0.499 h⁻¹
- k, h+ → h− (average used in analysis of the deuterated mixture) [1, 4]: 0.802 h⁻¹
- k, h− → h+ (average used in analysis of the deuterated mixture) [1, 4]: 0.668 h⁻¹

SMILES: Cc1cc(Oc2ccc3nc(COc4ccc(CC5SC(=O)NC5=O)cc4)n(C)c3c2)cc(C)c1N (single isomer, unassigned; (+)) [h+, (+)-5-[(p-{[6-(4-amino-3,5-xylyloxy)-1-methyl-1,3-diaza-1H-inden-2-yl]methoxy}phenyl)methyl]-1,3-thiazolidine-2,4-dione, reference compound]
- k, h+ → h− ([1]; human plasma at 37° C.): 0.803 h⁻¹
- k, h− → h+ ([1]; human plasma at 37° C.): 0.665 h⁻¹

SMILES: Cc1cc(Oc2ccc3nc(COc4ccc(CC5SC(=O)NC5=O)cc4)n(C)c3c2)cc(C)c1N (single isomer, unassigned; (-)) [h−, (−)-5-[(p-{[6-(4-amino-3,5-xylyloxy)-1-methyl-1,3-diaza-1H-inden-2-yl]methoxy}phenyl)methyl]-1,3-thiazolidine-2,4-dione, reference compound]
- k, h+ → h− ([1]; human plasma at 37° C.): 0.800 h⁻¹
- k, h− → h+ ([1]; human plasma at 37° C.): 0.671 h⁻¹
